According to patent US20180256673A1, “METHODS FOR TREATING FUNGAL INFECTIONS” (priority 2015, published 2018):
Converted amounts (≈) assume the structure as drawn. “And” between values parts separate entries of the source, which are not always exact repeats. Equal values may be shown once. Read-outs that look alike come from different tables or passages of the source. Starred links: 1 amine or outer side, 2 acyl side, 3 side chain; linkers in the order of their positions; H or OH if unused. Positions of bridges follow the written chain, without caps; N, C: chain ends. Non-standard residues stand in square brackets, D forms with d. Residues, ends and D or L forms follow the SMILES beside them. *: point of attachment. pTerphenylCO(4''-OnC5H11) = CCCCCOc1ccc(-c2ccc(-c3ccc(C(=O)*)cc3)cc2)cc1; Orn(4R-OH,5R-OH) = O=C([C@H](C[C@@H](O)[C@@H](O)N[*:3])N[*:1])[*:2]; hTyr(3S-OH,4S-OH) = N[C@H](C(=O)O)[C@H](O)[C@@H](O)c1ccc(O)cc1; Pro(3S-OH,4S-Me) = C[C@H]1CN[C@H](C(=O)O)[C@H]1O; Hyp = O=C(O)[C@@H]1C[C@@H](O)CN1

Tests used:
[1] = tested on: C. parapsilosis CP02; assay type: cell-based, Candida parapsilosis
Description: Spontaneous mutant selection. […] Three individual colonies from each strain were used to start cultures in RPMI. […] One milliliter aliquots were spread onto SDA plates containing drug with sterile glass beads. Starting viable count was enumerated by triplicate plating of serial dilutions of the starting inoculum. […] Glycerol stocks of putative mutant colonies were stored at −80° C. […] Spontaneous mutation frequencies were calculated by dividing the number of resistant colonies on a given plate by the starting inoculum plated. A subset of mutants (weighted heavily towards those selected with CMP1) were then evaluated by MIC and sequencing of FKS gene hot spot regions.

[2] = tested on: C. glabrata ATCC 90030, ATCC 2001; test: microbe, parasite or virus in culture; assay type: cell-based, Candida glabrata; conditions: for MIC fold-shift: WT to P20; for MIC: Nakaseomyces glabratus
[3] = tested on: C. glabrata vaginal isolates; test: Susceptibility testing of VVC clinical isolates at pH 7 and 4 (CLSI M27-A3); assay type: cell-based, Candida glabrata; conditions: Nakaseomyces glabratus
[4] = tested on: C. parapsilosis vaginal isolates; test: as above; assay type: cell-based, Candida parapsilosis
[5] = tested on: Candida glabrata; test: microbe, parasite or virus in culture; assay type: cell-based
[6] = tested on: Candida parapsilosis; test: Broth microdilution of invasive fungal isolates (CLSI M27-A3/M38-A2); assay type: cell-based
[7] = tested on: Candida tropicalis; test: as above; assay type: cell-based
[8] = tested on: C. albicans NRRL Y-477; test: Broth microdilution MIC (CLSI), Examples 3 and 4; conditions: Candida albicans
Description: Antifungal susceptibility testing. […] MIC assays were performed in triplicate.

[9] = tested on: C. glabrata ATCC 90030, ATCC 2001; test: Broth microdilution MIC (CLSI), Examples 3 and 4; conditions: Nakaseomyces glabratus
Description: (§1) Antifungal susceptibility testing. Candida strains were cultured aerobically at 35° C. on SDA plates or in RPMI 1640 broth (pH 7.0). […] MIC assays were performed in triplicate.

[10] = tested on: C. parapsilosis CP02; test: Broth microdilution MIC (CLSI), Examples 3 and 4; conditions: Lodderomyces parapsilosis, CP02, 24 h, read-out: Broth MIC
Description: as §1

CCCCCOc1ccc(-c2ccc(-c3ccc(C(=O)N[C@H]4C[C@@H](O)[C@@H](O)NC(=O)[C@@H]5[C@@H](O)[C@@H](C)CN5C(=O)[C@H]([C@@H](C)O)NC(=O)[C@H]([C@H](O)[C@@H](O)c5ccc(O)cc5)NC(=O)[C@@H]5C[C@@H](O)CN5C(=O)[C@H]([C@@H](C)O)NC4=O)cc3)cc2)cc1 [ANID, anidulafungin] ({pTerphenylCO(4''-OnC5H11)}-[Orn(4R-OH,5R-OH)]T[Hyp][hTyr(3S-OH,4S-OH)]T[Pro(3S-OH,4S-Me)]; lactam 1-C) was tested, and the Median mutation frequency [1] was under 1.04E−08, the Plate concentration ([1]; SDA, minimum concentration to cleanly inhibit growth) was 16 µg/mL and the “Freq. (replicate mutation frequency)” value ([1]; replicate plates 1-3) was <1.04E−08 (2×) and <9.62E−09. For the same compound, the MIC fold-shift ([2]; ATCC 2001) was 64, the MIC fold-shift ([2]; ATCC 90030) was 64 and the MIC ([2]; 48 h, ATCC 90030 P20-1, selecting drug ANID, Fks2 HS1 D666I, 48 h read) was 4 µg/mL (≈ 3.51 µM). The MIC ([2]; 48 h, ATCC 90030 P20-1, selecting drug CAS, Fks2 HS1 F659I D666Y, 48 h read) was 8 µg/mL (≈ 7.02 µM), the MIC ([2]; ATCC 2001 P20-2, selecting drug ANID, Fks1 HS1 D632Y) was 4 µg/mL (≈ 3.51 µM) and the MIC ([2]; ATCC 2001 P20-2, selecting drug CAS) was 2 µg/mL (≈ 1.75 µM). The MIC ([2]; ATCC 2001 P20-2, selecting drug CMP1) was 1 µg/mL (≈ 0.877 µM), the MIC ([2]; ATCC 90030 P20-2, selecting drug CMP1) was 1 µg/mL (≈ 0.877 µM) and the MIC ([2]; read-out: MIC P20, ATCC 2001, total population after 20 passages with the selecting drug, MIC of selecting drug) was 4 µg/mL. For the same compound, the MIC ([2]; read-out: MIC P20, ATCC 90030, total population after 20 passages with the selecting drug, MIC of selecting drug) was 4 µg/mL, the MIC90 ([3]; 24 h, pH 4) was 0.125 µg/mL (≈ 0.11 µM) and the MIC90 ([3]; 24 h, pH 7) was 0.03 µg/mL (≈ 0.0263 µM). It also gave an MIC90 ([3]; 48 h, pH 4) of 0.25 µg/mL (≈ 0.219 µM), an MIC90 ([3]; 48 h, pH 7) of 0.06 µg/mL (≈ 0.0526 µM) and an MIC90 ([4]; 24 h, pH 4) of 1 µg/mL (≈ 0.877 µM). It also gave an MIC90 ([4]; 24 h, pH 7) of 2 µg/mL (≈ 1.75 µM), an MIC90 ([4]; 48 h, pH 4) of 2 µg/mL (≈ 1.75 µM) and an MIC90 ([4]; 48 h, pH 7) of 4 µg/mL (≈ 3.51 µM). The “Cumulative % of isolates inhibited at MIC 0.015 μg/mL” value [5] was “(1.0) %”, the “Cumulative % of isolates inhibited at MIC 0.03 μg/mL” value [5] was “(12.0) %” and the “Cumulative % of isolates inhibited at MIC 0.06 μg/mL” value [5] was “(74.0) %”. For the same compound, the “Cumulative % of isolates inhibited at MIC 0.12 μg/mL” value [5] was “(95.0) %”, the “Cumulative % of isolates inhibited at MIC 0.25 μg/mL” value [5] was “(95.0) %” and the “Cumulative % of isolates inhibited at MIC 0.5 μg/mL” value [5] was “(95.0) %”. The “Cumulative % of isolates inhibited at MIC 1 μg/mL” value [5] was “(95.0) %”, the “Cumulative % of isolates inhibited at MIC 2 μg/mL” value [5] was “(98.0) %” and the “Cumulative % of isolates inhibited at MIC 4 μg/mL” value [5] was “(100.0) %”. The “Cumulative % of isolates inhibited at MIC ≤0.008 μg/mL” value [5] was “(1.0) %”, the “Number of isolates inhibited at MIC 0.015 μg/mL” value [5] was 0 and the “Number of isolates inhibited at MIC 0.03 μg/mL” value [5] was 11. For the same compound, the “Number of isolates inhibited at MIC 0.06 μg/mL” value [5] was 62, the “Number of isolates inhibited at MIC 0.12 μg/mL” value [5] was 21 and the “Number of isolates inhibited at MIC 0.25 μg/mL” value [5] was 0. The “Number of isolates inhibited at MIC 0.5 μg/mL” value [5] was 0, the “Number of isolates inhibited at MIC 1 μg/mL” value [5] was 0 and the “Number of isolates inhibited at MIC 2 μg/mL” value [5] was 3. The “Number of isolates inhibited at MIC 4 μg/mL” value [5] was 2, the “Number of isolates inhibited at MIC ≤0.008 μg/mL” value [5] was 1 and the MIC50 ([5]; Nakaseomyces glabratus, read-out: MIC50) was 0.06 µg/mL (≈ 0.0526 µM). The MIC90 ([5]; Nakaseomyces glabratus, read-out: MIC90) was 0.12 µg/mL (≈ 0.105 µM), the MIC ([5]; Nakaseomyces glabratus, read-out: MIC according to CLSI method) was 2 µg/mL (≈ 1.75 µM) and the MIC ([5]; Nakaseomyces glabratus, read-out: MIC results) was 2 to 4 µg/mL (≈ 1.75 to 3.51 µM). For the same compound, the “MIC according to CLSI method” value ([5]; listed as ANF) was 4 µg/mL (≈ 3.51 µM), the “Cumulative % of isolates inhibited at MIC 0.5 μg/mL” value ([6]; 92 isolates) was “(4.3) %” and the “Cumulative % of isolates inhibited at MIC 1 μg/mL” value ([6]; 92 isolates) was “(34.8) %”. The “Cumulative % of isolates inhibited at MIC 2 μg/mL” value ([6]; 92 isolates) was “(82.6) %”, the “Cumulative % of isolates inhibited at MIC 4 μg/mL” value ([6]; 92 isolates) was “(100.0) %” and the “Number of isolates inhibited at MIC 0.5 μg/mL” value ([6]; 92 isolates) was 4. For the same compound, the “Number of isolates inhibited at MIC 1 μg/mL” value ([6]; 92 isolates) was 28, the “Number of isolates inhibited at MIC 2 μg/mL” value ([6]; 92 isolates) was 44 and the “Number of isolates inhibited at MIC 4 μg/mL” value ([6]; 92 isolates) was 16. The MIC50 ([6]; Lodderomyces parapsilosis) was 2 µg/mL (≈ 1.75 µM), the MIC90 ([6]; Lodderomyces parapsilosis) was 4 µg/mL (≈ 3.51 µM) and the “Cumulative % of isolates inhibited at MIC 0.015 μg/mL” value ([7]; 51 isolates) was “(62.7) %”. For the same compound, the “Cumulative % of isolates inhibited at MIC 0.03 μg/mL” value ([7]; 51 isolates) was “(98.0) %”, the “Cumulative % of isolates inhibited at MIC 0.06 μg/mL” value ([7]; 51 isolates) was “(100.0) %” and the “Cumulative % of isolates inhibited at MIC ≤0.008 μg/mL” value ([7]; 51 isolates) was “(9.8) %”. The “Number of isolates inhibited at MIC 0.015 μg/mL” value ([7]; 51 isolates) was 27, the “Number of isolates inhibited at MIC 0.03 μg/mL” value ([7]; 51 isolates) was 18 and the “Number of isolates inhibited at MIC 0.06 μg/mL” value ([7]; 51 isolates) was 1. For the same compound, the “Number of isolates inhibited at MIC ≤0.008 μg/mL” value ([7]; 51 isolates) was 5, the MIC50 ([7]; Candida tropicalis) was 0.015 µg/mL (≈ 0.0132 µM) and the MIC90 ([7]; Candida tropicalis) was 0.03 µg/mL (≈ 0.0263 µM). It also gave an MIC ([8]; NRRLY477) of 0.25 µg/mL (≈ 0.219 µM), an MIC ([8]; NRRLY477, 24 h, read-out: Broth MIC) of 0.015 µg/mL (≈ 0.0132 µM) and an MIC ([9]; ATCC2001|ATCC90030, 24 h, read-out: Broth MIC, ATCC 2001 wild-type, 24 h, ~50% inhibition) of 0.06 µg/mL (≈ 0.0526 µM). It also gave an MIC ([9]; ATCC2001|ATCC90030, 24 h, read-out: Broth MIC, ATCC 90030 wild-type, 24 h, ~50% inhibition) of 0.06 µg/mL (≈ 0.0526 µM), an MIC ([9]; ATCC2001|ATCC90030, ATCC 2001 spontaneous mutant, Fks2 HS1 D666N) of 0.5 µg/mL (≈ 0.438 µM) and an MIC ([9]; ATCC2001|ATCC90030, ATCC 2001 spontaneous mutant, Fks2 HS1 D666Y) of 0.5 µg/mL (≈ 0.438 µM). For the same compound, the MIC ([9]; ATCC2001|ATCC90030, ATCC 2001 spontaneous mutant, Fks2 HS1 R665G) was 0.5 µg/mL (≈ 0.438 µM), the MIC ([9]; ATCC2001|ATCC90030, ATCC 2001 spontaneous mutant, Fks2 HS1 S663F) was 1 µg/mL (≈ 0.877 µM) and the MIC ([9]; ATCC2001|ATCC90030, ATCC 2001 spontaneous mutant, Fks2 HS1 ΔF659) was 4 µg/mL (≈ 3.51 µM). It also gave an MIC ([9]; ATCC2001|ATCC90030, ATCC 2001 spontaneous mutant, Fks2 HS2 R1378S) of 0.25 µg/mL (≈ 0.219 µM), an MIC ([9]; ATCC2001|ATCC90030, ATCC 90030 spontaneous mutant, Fks2 HS1 D666H) of 1 µg/mL (≈ 0.877 µM) and an MIC ([9]; ATCC2001|ATCC90030, ATCC 90030 spontaneous mutant, Fks2 HS1 ΔF659) of 2 µg/mL (≈ 1.75 µM). The MIC [10] was 4 µg/mL (≈ 3.51 µM).
